Reference: patent US20230067811A1, “MODULATING LYMPHATIC VESSELS IN NEUROLOGICAL DISEASE” (University of Virginia Patent Foundation, priority 2020, published 2023)

Tested on: microglia
Test: Single-cell RNA-seq of brain cortical myeloid cells after meningeal lymphatic ablation
Assay type: in vivo, mouse
Details: 5×FAD mice, Vis. versus Vis./photo. groups
Method: Transcriptome of sorted live CD45^+Ly6G^negCD11b^+ cells pooled from 3 mice per group was analyzed by single-cell RNA-seq (scRNA-seq).
J Neurosci 28, 14156-14164, (2008)). Thus, it was hypothesized that altered microglial function in mice with impaired meningeal lymphatics was contributing to decreased clearance of Aβ by anti-Abeta antibody. Single-cell RNA-seq was performed on live myeloid CD45^+Ly6G^negCD11b^+ cells sorted from the brain cortices of 5×FAD mice with intact or ablated meningeal lymphatics (FIG. 13A). After in-silico removal of undesired cell contaminants, shared nearest neighbor clustering and t-distributed stochastic neighbor embedding, four clusters of microglia were identified (FIG. 13B). […] Cell 169, 1276-1290 e1217, (2017); Krasemann, S. et al. The TREM2-APOE Pathway Drives the Transcriptional Phenotype of Dysfunctional Microglia in Neurodegenerative Diseases. Immunity 47, 566-581 e569, (2017)). Concomitantly, it was observed that there was a significant increase in cortical CD45^high cells (recruited leukocytes and/or activated microglia, FIGS. 13M-13Q) and in the levels of […] (encoded by the H2-D1 gene) in both CD45^intCD11b^+ (microglia) and CD45high CD11b^neg (recruited lymphoid cells) cells in mice with meningeal lymphatic dysfunction (FIGS. 13R-13U). […]

verteporfin [Visudyne]
frequency of microglia (% of total cells) from each cluster: similar
